Reference: US20090270363A1, “2-Aryl- and 2-Heteroarylthiazolyl Compounds, Methods for Their Preparation and Use Thereof” (Wyeth, priority 2008, published 2009)

How the values were obtained:
Format in all cases: cell-based
[1] = system: HCT116 cells (Securin+/+, securin parental, HCT116 FB); test: Growth inhibition (sulforhodamine B, 5 days) of securin parental cells; conditions: Homo sapiens, HCT-116, 120 h, SRB
Experimental: (§1) IC50 analysis was performed for selected fused bicyclic 2-aryl or 2-heteroarylthiazolyl compounds that were tested on HCT116 cells and Securin “knock out” cell lines.
(§2) Cell Culture—HCT116 and securin “knock out” cells. HCT116 and securin “knock out” cells (D8 and F3) were grown in RPMI+5% fetal bovine serum and gentamycin. They were maintained in a humidified 37° C. incubator with 5% CO2. Since the securin “knock out” cells have active chromosomal instability, cells were used at a low passage number of 2-13 passages. At or before passage 13 a new vial of cells was thawed and used for the screen. Cell seeding—HCT116 cells and securin “knock out” cells were trypsinized and suspended in RPMI+5% FBS at a density of 27,000 cells/mL. HCT116 and securin “knock out” cells were seeded separately in wells of a 96-well plate (Falcon Cat # 35-3872) at a cell density of 4000 cells per well. Cells were seeded in 150 μL of RPMI media containing 5% FBS and gentamycin. Cell seeding was performed under aseptic conditions. Cells were allowed to attach and grow overnight in a humidified 37° C. incubator.
(§3) Compound Dilution and Dispensation. A series of stock solutions, 10 mg/mL of fused bicyclic 2-aryl- or 2-heteroarylthiazolyl compounds to be tested, were brought to room temperature. The compounds were diluted 1:50 in RPMI+5% FBS (Highest concentration 200 μg/mL). The compounds were then serially diluted 1:3 across a deep-well titration plate resulting in final concentrations in the plate of 200, 66.7, 22.2, 7.4, 2.4, 0.8, 0.27, 0.091, 0.03, 0.01, and 0.0034 μg/mL with one well left without a compound. 50 μL of this dilution series was added to the 150 μL of cells to result in a final concentration of compound in with the cells of 50, 16.6, 5.5, 1.8, 0.6, 0.2, 0.068, 0.023, 0.0076, 0.0025, and 0.00084 μg/mL. The dilution and addition of compounds to the plates is performed using a Multimek 96 Robot (Beckman Coulter).
(§4) Incubation and analysis. After dosing, the cells in the 96 well plates were returned to the humidified 37° C. incubator. The compounds remained on the cells for 5 days. After 5 days, the cells were fixed to the plates with the addition of 50 μL of 50% (vol/vol) Trichloro Acetic Acid ([…]). The cells were fixed at 4° C. for 1 hour. The plates were washed 5 times in distilled water and allowed to dry. The cells were stained with 0.4% sulforhodamine B (Sigma) in 1% acetic acid. The cells were stained for 15 minutes at room temperature. The plates were then washed 3 times in 1% acetic acid. The plates were dried and the dye was solubilized in 10 mM Tris at pH 8.0. The plates were read on the Absorbence 560 setting on a Victor^2 V Model 1420 Multilabel HTS counter (Perkin Elmer).
(§5) Analysis of Results—IC50 data. Absorbence data was read off of the Victor and was converted to a percentage of the control (untreated) values. IC50 values were graphed and the point at which a 50% inhibition of the control level was determined. […] If the model was not able to determine an IC50, the IC50 was assigned to the lowest concentration that gives a 50% or greater decrease in absorbence compared to control levels. If the calculated IC50 value for a cell line exceeds the top concentration for the assay (typically 50 μg/mL), the assay was scored as >50.
(§6) Selectivity Ratio. The Selectivity Ratio is the ratio of IC50s between the parent cell line and the knock out cell line and is always a positive number and is typically an integer.

[2] = system: securin "knock out" cells D8 (Securin-/-); test: Growth inhibition (sulforhodamine B, 5 days) of securin knock out cells D8; conditions: for IC50: 120 h, securin knock out D8 cells, 5 days, SRB; for Selectivity Ratio D8: IC50 HCT116 / IC50 securin KO D8
Experimental: as §1, §2, §3, §4, §5, §6

[3] = system: securin "knock out" cells F3 (Securin-/-); test: Growth inhibition (sulforhodamine B, 5 days) of securin knock out cells F3; conditions: for IC50: 120 h, securin knock out F3 cells, 5 days, SRB; for Selectivity Ratio F3: IC50 HCT116 / IC50 securin KO F3
Experimental: as §1, §2, §3, §4, §5, §6

Structure (SMILES)	IC50 [1] [µM]	IC50 [2] [µM]	Selectivity Ratio D8 [2]	IC50 [3] [µM]	Selectivity Ratio F3 [3]	selectivity ratios (IC50 HCT116 FB/IC50 securin KO) [2]
CC#CCOC(=O)c1cc(N(C)C)ccc1-c1nc2c(s1)C(O)CCC2 (stereo not shown) [Example 133, but-2-yn-1-yl 5-(dimethylamino)-2-(7-hydroxy-4,5,6,7-tetrahydro-1,3-benzothiazol-2-yl)benzoate]	96.5	1.1	87	1.8	54	
C[S+]([O-])c1cc(N2CCCC2)ccc1-c1nc2c(s1)C(O)CCC2 (stereo not shown) [Example 155, 2-[2-(Methylsulfinyl)-4-pyrrolidin-1-ylphenyl]-4,5,6,7-tetrahydro-1,3-benzothiazol-7-ol]	38.8	0.099	390	0.17	224	
N#Cc1cc(N2CCCC2)ccc1-c1nc2c(s1)C(O)CCC2 (stereo not shown) [Example 85, 2-(7-hydroxy-4,5,6,7-tetrahydro-1,3-benzothiazol-2-yl)-5-pyrrolidin-1-ylbenzonitrile]	48.4	0.19	253	0.31	159	
CN(C)c1ccc(-c2nc3c(s2)C(O)CCC3)c(Br)c1 (stereo not shown) [Example 140, 2-[2-bromo-4-(dimethylamino)phenyl]-4,5,6,7-tetrahydro-1,3-benzothiazol-7-ol]	37.2	0.57	66	1.8	21	
CN(C)c1ccc(-c2nc3c(s2)C(O)CCC3)c(C=O)c1 (stereo not shown) [Example 67]	31	0.059	525	0.15	206	
CN(C)c1cc(F)c(-c2nc3c(s2)C(O)CCC3)c(F)c1 (stereo not shown) [Example 25, 2-[4-(dimethylamino)-2,6-difluorophenyl]-4,5,6,7-tetrahydro-1,3-benzothiazol-7-ol]	≥ 161	2.6	62	6.7	24	
COC(=O)c1cc(N(C)C)ccc1-c1nc2c(s1)[C@H](O)CCC2 [Example 165, methyl 5-(dimethylamino)-2-[(7R)-7-hydroxy-4,5,6,7-tetrahydro-1,3-benzothiazol-2-yl]benzoate]	100	0.29	348	0.74	136	
CN(C)c1ccc(-c2nc3c(s2)C(O)CCC3)c(C(=O)OCc2ccncc2)c1 (stereo not shown) [Example 127, pyridin-4-ylmethyl 5-(dimethylamino)-2-(7-hydroxy-4,5,6,7-tetrahydro-1,3-benzothiazol-2-yl)benzoate]	100	4.9	20	6.3	16	
CN(C)c1ccc(-c2nc3c(s2)[C@H](O)CC3)cc1 [Example 6, (6R)-2-[4-(dimethylamino)phenyl]-5,6-dihydro-4H-cyclopenta[d][1,3]thiazol-6-ol]	43.4	0.46	95	0.84	52	
CN(C)c1ccc(-c2nc3c(s2)C(O)CCC3)c(C(=O)OCc2cccnc2)c1 (stereo not shown) [Example 126, pyridin-3-ylmethyl 5-(dimethylamino)-2-(7-hydroxy-4,5,6,7-tetrahydro-1,3-benzothiazol-2-yl)benzoate]	100	1.9	54	2.5	40	
C=CCOC(=O)c1cc(N(C)C)ccc1-c1nc2c(s1)C(O)CCC2 (stereo not shown) [Example 112, allyl 5-(dimethylamino)-2-(7-hydroxy-4,5,6,7-tetrahydro-1,3-benzothiazol-2-yl)benzoate]	97.3	0.54	182	0.72	135	
CC(C)OC(=O)c1cc(N(C)C)ccc1-c1nc2c(s1)C(O)CCC2 (stereo not shown) [Example 111, isopropyl 5-(dimethylamino)-2-(7-hydroxy-4,5,6,7-tetrahydro-1,3-benzothiazol-2-yl)benzoate]	100	1.3	75	1.4	71	
Cc1cc(N(C)C)ccc1-c1nc2c(s1)[C@H](O)CCC2 [Example 99, (7R)-2-[4-(dimethylamino)-2-methylphenyl]-4,5,6,7-tetrahydro-1,3-benzothiazol-7-ol]	≥ 173	0.24	709	0.21	810	
C#CCOC(=O)c1cc(N(C)C)ccc1-c1nc2c(s1)C(O)CCC2 (stereo not shown) [Example 129, prop-2-yn-1-yl 5-(dimethylamino)-2-(7-hydroxy-4,5,6,7-tetrahydro-1,3-benzothiazol-2-yl)benzoate]	77.8	0.36	216	0.45	172	
CN(C)c1ccc(-c2nc3c(s2)C(O)CCC3)c(CO)c1 (stereo not shown) [Example 60, 2-[4-(dimethylamino)-2-(hydroxymethyl)phenyl]-4,5,6,7-tetrahydro-1,3-benzothiazol-7-ol]	97.5	0.091	1076	0.12	821	
Cc1cc(N(C)C)ccc1-c1nc2c(s1)C(O)CCC2 (stereo not shown) [Example 45, 2-[4-(dimethylamino)-2-methylphenyl]-4,5,6,7-tetrahydro-1,3-benzothiazol-7-ol]	133	0.54	245	1.1	121	high selectivity ratios
CN(C)c1ccc(-c2nc3c(s2)C(O)CCC3)c(C(=O)OCc2ccccn2)c1 (stereo not shown) [Example 128, pyridin-2-ylmethyl 5-(dimethylamino)-2-(7-hydroxy-4,5,6,7-tetrahydro-1,3-benzothiazol-2-yl)benzoate]	86.7	1.9	45	2.6	33	
C/C=C/COC(=O)c1cc(N(C)C)ccc1-c1nc2c(s1)C(O)CCC2 (stereo not shown) [Example 130, (2E)-but-2-en-1-yl 5-(dimethylamino)-2-(7-hydroxy-4,5,6,7-tetrahydro-1,3-benzothiazol-2-yl)benzoate]	77.6	2	38	2.4	32	
CN(C)c1ccc(-c2nc3c(s2)C(O)CC3)cc1 (stereo not shown) [Example 5, 2-[4-(dimethylamino)phenyl]-5,6-dihydro-4H-cyclopenta[d][1,3]thiazol-6-ol]	54.3	1.3	43	1.8	30	
CC(=O)c1cc(N(C)C)ccc1-c1nc2c(s1)C(O)CCC2 (stereo not shown) [Example 74, 1-[5-(dimethylamino)-2-(7-hydroxy-4,5,6,7-tetrahydro-1,3-benzothiazol-2-yl)phenyl]ethanone]	100	0.15	650	0.18	558	
CC(O)c1cc(N(C)C)ccc1-c1nc2c(s1)C(O)CCC2 (stereo not shown) [Example 73, 2-[4-(dimethylamino)-2-(1-hydroxyethyl)phenyl]-4,5,6,7-tetrahydro-1,3-benzothiazol-7-ol]	99.5	0.44	226	0.79	126	
